Results as given in patent US9302999B2, “Substituted triazoles as herbicides” (E. I. DU PONT DE NEMOURS AND COMPANY, priority 2012, dated 2016).

Legend:
Assay type in all cases: in vivo
rice (Oryza sativa) = assay: Test C flooded paddy test: rice; details: scale 0 to 100 (0 no effect, 100 complete control)
How it was run: (§1)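 Plants at 2-leaf stage in pots flooded 3 cm above soil; compounds applied directly into the paddy water, depth maintained. Visual rating against controls after 13–15 days in greenhouse, scale 0 (no effect) to 100 (complete control).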

[1] = test system: wheat (Triticum aestivum); assay: Test A pre-/postemergence: wheat; details: for Wheat plant response rating: Postemergence; for Plant response rating, Wheat: Preemergence
How it was run: (§2)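 Injury is scored visually on a scale where 0 means no effect and 100 complete control, comparing treated with untreated plants after approximately ten greenhouse days. Both preemergence and postemergence applications are made at the same time.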

[2] = test system: sedge, umbrella (small-flower umbrella sedge, Cyperus difformis); assay: Test C flooded paddy test: sedge, umbrella; details: scale 0 to 100 (0 no effect, 100 complete control)
How it was run: as §1

[3] = test system: ducksalad (Heteranthera limosa); assay: Test C flooded paddy test: ducksalad; details: scale 0 to 100 (0 no effect, 100 complete control)
How it was run: as §1

[4] = test system: morningglory (Ipomoea spp.); assay: Test A pre-/postemergence: morningglory; details: for Morningglory plant response rating: Postemergence; for Plant response rating, Morningglory: Preemergence
How it was run: as §2

[5] = test system: crabgrass, large (large crabgrass, Digitaria sanguinalis); assay: Test A pre-/postemergence: crabgrass, large; details: for Crabgrass, Large plant response rating: Postemergence; for Plant response rating, Crabgrass, Large: Preemergence
How it was run: as §2

corn (Zea mays) = assay: Test A pre-/postemergence: corn; details: for Corn plant response rating: Postemergence; for Plant response rating, Corn: Preemergence
How it was run: as §2

[6] = test system: velvetleaf (Abutilon theophrasti); assay: Test A pre-/postemergence: velvetleaf; details: for Velvetleaf plant response rating: Postemergence; for Plant response rating, Velvetleaf: Preemergence
How it was run: as §2

[7] = test system: pigweed (Amaranthus retroflexus); assay: Test A pre-/postemergence: pigweed; details: for Pigweed plant response rating: Postemergence; for Plant response rating, Pigweed: Preemergence
How it was run: as §2

[8] = test system: barnyardgrass (Echinochloa crus-galli); assay: Test C flooded paddy test: barnyardgrass; details: scale 0 to 100 (0 no effect, 100 complete control)
How it was run: as §1

[9] = test system: barnyardgrass (Echinochloa crus-galli); assay: Test A pre-/postemergence: barnyardgrass; details: for Barnyardgrass plant response rating: Postemergence; for Plant response rating, Barnyardgrass: Preemergence
How it was run: as §2

[10] = test system: foxtail, giant (giant foxtail, Setaria faberii); assay: Test A pre-/postemergence: foxtail, giant; details: for Foxtail, Giant plant response rating: Postemergence; for Plant response rating, Foxtail, Giant: Preemergence
How it was run: as §2

[11] = Flood (flooded paddy test), 62 g ai/ha, visual rating after 13 to 15 days
[12] = Flood (flooded paddy test), 125 g ai/ha, visual rating after 13 to 15 days
[13] = Flood (flooded paddy test), 250 g ai/ha, visual rating after 13 to 15 days
[14] = 125 g ai/ha, 0 to 100 scale, 0 is no effect, 100 is complete control
[15] = 500 g ai/ha, visual rating on 0 to 100 scale (0 no effect, 100 complete control), approximately ten days
[16] = 125 g ai/ha, 0 to 100 scale (0 no effect, 100 complete control)
[17] = 500 g ai/ha, 0 to 100 scale, 0 is no effect, 100 is complete control

Cc1nn(-c2cccc([N+](=O)[O-])c2)nc1C(=O)c1cccc(C(F)(F)F)c1 [Compound 62]
Plant response rating, Rice (rice (Oryza sativa); [11]): 0
Plant response rating, Rice (rice (Oryza sativa); [12]): 0
Plant response rating, Rice (rice (Oryza sativa); [13]): 0
Plant response rating, Rice (rice (Oryza sativa); Flood, 31 g ai/ha): 0
Wheat plant response rating [1, 14]: 0
Wheat plant response rating [1, 15]: 0
Plant response rating, Wheat [1, 16]: 0
Plant response rating, Wheat [1, 17]: 0
Plant response rating, Sedge, Umbrella [2, 11]: 0
Plant response rating, Sedge, Umbrella [2, 12]: 0
Plant response rating, Sedge, Umbrella [2, 13]: 0
Plant response rating, Sedge, Umbrella ([2]; Flood, 31 g ai/ha): 0
Plant response rating, Ducksalad [3, 11]: 0
Plant response rating, Ducksalad [3, 12]: 0
Plant response rating, Ducksalad [3, 13]: 0
Plant response rating, Ducksalad ([3]; Flood, 31 g ai/ha): 0
Morningglory plant response rating [4, 14]: 0
Morningglory plant response rating [4, 15]: 0
Plant response rating, Morningglory [4, 16]: 0
Plant response rating, Morningglory [4, 17]: 0
Crabgrass, Large plant response rating [5, 14]: 0
Crabgrass, Large plant response rating [5, 15]: 0
Plant response rating, Crabgrass, Large [5, 16]: 0
Plant response rating, Crabgrass, Large [5, 17]: 0
Corn plant response rating (corn (Zea mays); [14]): 0
Corn plant response rating (corn (Zea mays); [15]): 0
Plant response rating, Corn (corn (Zea mays); [16]): 0
Plant response rating, Corn (corn (Zea mays); [17]): 0
Velvetleaf plant response rating [6, 14]: 0
Velvetleaf plant response rating [6, 15]: 0
Plant response rating, Velvetleaf [6, 16]: 0
Plant response rating, Velvetleaf [6, 17]: 0
Pigweed plant response rating [7, 14]: 0
Pigweed plant response rating [7, 15]: 10
Plant response rating, Pigweed [7, 16]: 0
Plant response rating, Pigweed [7, 17]: 0
Plant response rating, Barnyardgrass [8, 11]: 0
Plant response rating, Barnyardgrass [8, 12]: 0
Plant response rating, Barnyardgrass [8, 13]: 0
Plant response rating, Barnyardgrass ([8]; Flood, 31 g ai/ha): 0
Barnyardgrass plant response rating [9, 14]: 0
Barnyardgrass plant response rating [9, 15]: 10
Plant response rating, Barnyardgrass [9, 16]: 0
Plant response rating, Barnyardgrass [9, 17]: 0
Foxtail, Giant plant response rating [10, 14]: 0
Foxtail, Giant plant response rating [10, 15]: 0
Plant response rating, Foxtail, Giant [10, 16]: 0
Plant response rating, Foxtail, Giant [10, 17]: 0

Cc1nn(-c2ccccc2[N+](=O)[O-])nc1C(=O)c1cccc(C(F)(F)F)c1 [Compound 63]
Plant response rating, Rice (rice (Oryza sativa); [11]): 0
Plant response rating, Rice (rice (Oryza sativa); [12]): 0
Plant response rating, Rice (rice (Oryza sativa); [13]): 0
Plant response rating, Rice (rice (Oryza sativa); Flood, 31 g ai/ha): 0
Wheat plant response rating [1, 14]: 0
Wheat plant response rating [1, 15]: 0
Plant response rating, Wheat [1, 16]: 0
Plant response rating, Wheat [1, 17]: 0
Plant response rating, Sedge, Umbrella [2, 11]: 0
Plant response rating, Sedge, Umbrella [2, 12]: 0
Plant response rating, Sedge, Umbrella [2, 13]: 0
Plant response rating, Sedge, Umbrella ([2]; Flood, 31 g ai/ha): 0
Plant response rating, Ducksalad [3, 11]: 0
Plant response rating, Ducksalad [3, 12]: 0
Plant response rating, Ducksalad [3, 13]: 0
Plant response rating, Ducksalad ([3]; Flood, 31 g ai/ha): 0
Morningglory plant response rating [4, 14]: 0
Morningglory plant response rating [4, 15]: 0
Plant response rating, Morningglory [4, 16]: 0
Plant response rating, Morningglory [4, 17]: 0
Crabgrass, Large plant response rating [5, 14]: 0
Crabgrass, Large plant response rating [5, 15]: 0
Plant response rating, Crabgrass, Large [5, 16]: 0
Plant response rating, Crabgrass, Large [5, 17]: 0
Corn plant response rating (corn (Zea mays); [14]): 0
Corn plant response rating (corn (Zea mays); [15]): 0
Plant response rating, Corn (corn (Zea mays); [16]): 0
Plant response rating, Corn (corn (Zea mays); [17]): 0
Velvetleaf plant response rating [6, 14]: 0
Velvetleaf plant response rating [6, 15]: 0
Plant response rating, Velvetleaf [6, 16]: 0
Plant response rating, Velvetleaf [6, 17]: 0
Pigweed plant response rating [7, 14]: 0
Pigweed plant response rating [7, 15]: 10
Plant response rating, Pigweed [7, 16]: 0
Plant response rating, Pigweed [7, 17]: 0
Plant response rating, Barnyardgrass [8, 11]: 0
Plant response rating, Barnyardgrass [8, 12]: 0
Plant response rating, Barnyardgrass [8, 13]: 0
Plant response rating, Barnyardgrass ([8]; Flood, 31 g ai/ha): 0
Barnyardgrass plant response rating [9, 14]: 0
Barnyardgrass plant response rating [9, 15]: 0
Plant response rating, Barnyardgrass [9, 16]: 0
Plant response rating, Barnyardgrass [9, 17]: 0
Foxtail, Giant plant response rating [10, 14]: 0
Foxtail, Giant plant response rating [10, 15]: 0
Plant response rating, Foxtail, Giant [10, 16]: 0
Plant response rating, Foxtail, Giant [10, 17]: 0

Cc1nn(-c2cncc(C(F)(F)F)c2)nc1C(=O)c1cccc(C(F)(F)F)c1 [Compound 66]
Plant response rating, Rice (rice (Oryza sativa); [11]): 0
Plant response rating, Rice (rice (Oryza sativa); [13]): 0
Wheat plant response rating [1, 14]: 0
Wheat plant response rating [1, 15]: 10
Plant response rating, Wheat [1, 16]: 0
Plant response rating, Wheat [1, 17]: 0
Plant response rating, Sedge, Umbrella [2, 11]: 0
Plant response rating, Sedge, Umbrella [2, 13]: 0
Plant response rating, Ducksalad [3, 11]: 0
Plant response rating, Ducksalad [3, 13]: 0
Morningglory plant response rating [4, 14]: 0
Morningglory plant response rating [4, 15]: 10
Plant response rating, Morningglory [4, 16]: 0
Plant response rating, Morningglory [4, 17]: 0
Crabgrass, Large plant response rating [5, 14]: 10
Crabgrass, Large plant response rating [5, 15]: 10
Plant response rating, Crabgrass, Large [5, 16]: 10
Plant response rating, Crabgrass, Large [5, 17]: 50
Corn plant response rating (corn (Zea mays); [14]): 0
Corn plant response rating (corn (Zea mays); [15]): 10
Plant response rating, Corn (corn (Zea mays); [16]): 0
Plant response rating, Corn (corn (Zea mays); [17]): 0
Velvetleaf plant response rating [6, 14]: 0
Velvetleaf plant response rating [6, 15]: 10
Plant response rating, Velvetleaf [6, 16]: 0
Plant response rating, Velvetleaf [6, 17]: 0
Pigweed plant response rating [7, 14]: 10
Pigweed plant response rating [7, 15]: 30
Plant response rating, Pigweed [7, 16]: 0
Plant response rating, Pigweed [7, 17]: 10
Plant response rating, Barnyardgrass [8, 11]: 0
Plant response rating, Barnyardgrass [8, 13]: 0
Barnyardgrass plant response rating [9, 14]: 0
Barnyardgrass plant response rating [9, 15]: 10
Plant response rating, Barnyardgrass [9, 16]: 0
Plant response rating, Barnyardgrass [9, 17]: 0
Foxtail, Giant plant response rating [10, 14]: 0
Foxtail, Giant plant response rating [10, 15]: 10
Plant response rating, Foxtail, Giant [10, 16]: 10
Plant response rating, Foxtail, Giant [10, 17]: 70

Cc1nn(-c2cccc(C(F)(F)F)c2)nc1Oc1cccc(C(F)(F)F)c1 [Compound 70]
Plant response rating, Rice (rice (Oryza sativa); [11]): 0
Plant response rating, Rice (rice (Oryza sativa); [12]): 0
Plant response rating, Rice (rice (Oryza sativa); [13]): 0
Plant response rating, Rice (rice (Oryza sativa); Flood, 31 g ai/ha): 0
Wheat plant response rating [1, 14]: 0
Wheat plant response rating [1, 15]: 10
Plant response rating, Wheat [1, 16]: 0
Plant response rating, Wheat [1, 17]: 0
Plant response rating, Sedge, Umbrella [2, 11]: 0
Plant response rating, Sedge, Umbrella [2, 12]: 0
Plant response rating, Sedge, Umbrella [2, 13]: 0
Plant response rating, Sedge, Umbrella ([2]; Flood, 31 g ai/ha): 0
Plant response rating, Ducksalad [3, 11]: 0
Plant response rating, Ducksalad [3, 12]: 0
Plant response rating, Ducksalad [3, 13]: 0
Plant response rating, Ducksalad ([3]; Flood, 31 g ai/ha): 0
Morningglory plant response rating [4, 14]: 10
Morningglory plant response rating [4, 15]: 20
Plant response rating, Morningglory [4, 16]: 0
Plant response rating, Morningglory [4, 17]: 0
Crabgrass, Large plant response rating [5, 14]: 10
Crabgrass, Large plant response rating [5, 15]: 30
Plant response rating, Crabgrass, Large [5, 16]: 0
Plant response rating, Crabgrass, Large [5, 17]: 40
Corn plant response rating (corn (Zea mays); [14]): 10
Corn plant response rating (corn (Zea mays); [15]): 20
Plant response rating, Corn (corn (Zea mays); [16]): 0
Plant response rating, Corn (corn (Zea mays); [17]): 0
Velvetleaf plant response rating [6, 14]: 10
Velvetleaf plant response rating [6, 15]: 50
Plant response rating, Velvetleaf [6, 16]: 0
Plant response rating, Velvetleaf [6, 17]: 0
Pigweed plant response rating [7, 14]: 40
Pigweed plant response rating [7, 15]: 100
Plant response rating, Pigweed [7, 16]: 0
Plant response rating, Pigweed [7, 17]: 10
Plant response rating, Barnyardgrass [8, 11]: 0
Plant response rating, Barnyardgrass [8, 12]: 0
Plant response rating, Barnyardgrass [8, 13]: 0
Plant response rating, Barnyardgrass ([8]; Flood, 31 g ai/ha): 0
Barnyardgrass plant response rating [9, 14]: 0
Barnyardgrass plant response rating [9, 15]: 10
Plant response rating, Barnyardgrass [9, 16]: 0
Plant response rating, Barnyardgrass [9, 17]: 0
Foxtail, Giant plant response rating [10, 14]: 10
Foxtail, Giant plant response rating [10, 15]: 20
Plant response rating, Foxtail, Giant [10, 16]: 0
Plant response rating, Foxtail, Giant [10, 17]: 50
